Several values for one entry are separate records, joined by “and”; a condition that tells them apart may be missing. Identical values can stand only once.
Test: xn = mol fraction of the nth substance listed

Nc1ccccc1 + C1CCCCC1
Settings	viscosity
301.05 K, 101.32 kPa, x1 = 0.7073	1.9 mPa·s
301.92 K, 101 kPa, x1 = 0.238	1.083 mPa·s
302.2 K, 101 kPa, x1 = 0.592	1.621 mPa·s
302.46 K, 101 kPa, x1 = 0.745	1.893 mPa·s
302.5 K, 101 kPa, x1 = 0.63	1.651 mPa·s
302.66 K, 101 kPa, x1 = 0.71	1.798 mPa·s
302.76 K, 101 kPa, x1 = 0.337	1.185 mPa·s
303 K, 101 kPa, x1 = 0.442	1.643 mPa·s and 1.611 mPa·s
303.02 K, 101 kPa, x1 = 0.442	1.57 mPa·s
303.08 K, 101 kPa, x1 = 0.39	1.305 mPa·s
303.09 K, 101 kPa, x1 = 0.442	1.539 mPa·s
303.12 K, 101 kPa, x1 = 0.592	1.574 mPa·s
303.15 K, 101 kPa, x1 = 0.442	1.496 mPa·s
303.15 K, 101.32 kPa, x1 = 0.7073	1.79 mPa·s
303.22 K, 101 kPa, x1 = 0.442	1.458 mPa·s
303.26 K, 101 kPa, x1 = 0.745	1.847 mPa·s
303.35 K, 101 kPa, x1 = 0.442	1.419 mPa·s
303.39 K, 101 kPa, x1 = 0.39	1.275 mPa·s
303.58 K, 101 kPa, x1 = 0.492	1.434 mPa·s
303.61 K, 101 kPa, x1 = 0.442	1.386 mPa·s
303.68 K, 101 kPa, x1 = 0.41	1.31 mPa·s
303.76 K, 101 kPa, x1 = 0.442	1.366 mPa·s
303.9 K, 101 kPa, x1 = 0.442	1.353 mPa·s
303.92 K, 101 kPa, x1 = 0.39	1.238 mPa·s
304.07 K, 101 kPa, x1 = 0.592	1.531 mPa·s
304.09 K, 101 kPa, x1 = 0.745	1.808 mPa·s
304.1 K, 101 kPa, x1 = 0.442	1.335 mPa·s
304.25 K, 101 kPa, x1 = 0.71	1.731 mPa·s
304.32 K, 101 kPa, x1 = 0.543	1.452 mPa·s
304.38 K, 101 kPa, x1 = 0.442	1.32 mPa·s
304.39 K, 101 kPa, x1 = 0.337	1.109 mPa·s
304.42 K, 101 kPa, x1 = 0.39	1.215 mPa·s
304.51 K, 101 kPa, x1 = 0.523	1.41 mPa·s
304.53 K, 101 kPa, x1 = 0.492	1.373 mPa·s
304.56 K, 101 kPa, x1 = 0.63	1.546 mPa·s
304.58 K, 101 kPa, x1 = 0.442	1.302 mPa·s
304.59 K, 101 kPa, x1 = 0.41	1.244 mPa·s
304.64 K, 101 kPa, x1 = 0.462	1.334 mPa·s
304.75 K, 101.32 kPa, x1 = 0.5628	1.51 mPa·s
304.99 K, 101 kPa, x1 = 0.442	1.281 mPa·s
305.01 K, 101 kPa, x1 = 0.745	1.77 mPa·s
305.05 K, 101.32 kPa, x1 = 0.5628	1.48 mPa·s
305.17 K, 101 kPa, x1 = 0.71	1.693 mPa·s
305.24 K, 101 kPa, x1 = 0.442	1.268 mPa·s
305.41 K, 101 kPa, x1 = 0.39	1.169 mPa·s
305.51 K, 101 kPa, x1 = 0.592	1.466 mPa·s
305.83 K, 101 kPa, x1 = 0.745	1.737 mPa·s
305.91 K, 101 kPa, x1 = 0.442	1.236 mPa·s
306.15 K, 101.32 kPa, x1 = 0.7073	1.65 mPa·s
306.28 K, 101 kPa, x1 = 0.337	1.051 mPa·s
306.33 K, 101 kPa, x1 = 0.462	1.247 mPa·s
306.36 K, 101 kPa, x1 = 0.442	1.216 mPa·s
306.36 K, 101 kPa, x1 = 0.492	1.292 mPa·s
306.37 K, 101 kPa, x1 = 0.543	1.363 mPa·s
306.39 K, 101 kPa, x1 = 0.63	1.481 mPa·s
306.5 K, 101 kPa, x1 = 0.523	1.328 mPa·s
306.54 K, 101 kPa, x1 = 0.41	1.163 mPa·s
306.88 K, 101 kPa, x1 = 0.71	1.624 mPa·s
307.09 K, 101 kPa, x1 = 0.745	1.683 mPa·s
307.11 K, 101 kPa, x1 = 0.442	1.192 mPa·s
307.79 K, 101 kPa, x1 = 0.592	1.39 mPa·s
307.84 K, 101 kPa, x1 = 0.442	1.159 mPa·s
308.04 K, 101 kPa, x1 = 0.492	1.235 mPa·s
308.08 K, 101 kPa, x1 = 0.745	1.642 mPa·s
308.26 K, 101 kPa, x1 = 0.41	1.103 mPa·s
308.28 K, 101 kPa, x1 = 0.39	1.07 mPa·s
308.35 K, 101 kPa, x1 = 0.337	0.993 mPa·s
308.35 K, 101 kPa, x1 = 0.462	1.172 mPa·s
308.36 K, 101 kPa, x1 = 0.543	1.292 mPa·s
308.41 K, 101 kPa, x1 = 0.63	1.409 mPa·s
308.43 K, 101 kPa, x1 = 0.523	1.261 mPa·s
309.04 K, 101 kPa, x1 = 0.745	1.609 mPa·s
309.11 K, 101 kPa, x1 = 0.442	1.122 mPa·s
309.15 K, 101.32 kPa, x1 = 0.7073	1.53 mPa·s
309.4 K, 101 kPa, x1 = 0.592	1.324 mPa·s
309.69 K, 101 kPa, x1 = 0.71	1.52 mPa·s
309.88 K, 101 kPa, x1 = 0.492	1.169 mPa·s
310.04 K, 101 kPa, x1 = 0.745	1.57 mPa·s
310.08 K, 101 kPa, x1 = 0.543	1.234 mPa·s
310.21 K, 101 kPa, x1 = 0.337	0.953 mPa·s
310.23 K, 101 kPa, x1 = 0.41	1.047 mPa·s
310.32 K, 101 kPa, x1 = 0.442	1.09 mPa·s
310.32 K, 101 kPa, x1 = 0.462	1.117 mPa·s
310.41 K, 101 kPa, x1 = 0.523	1.2 mPa·s
310.49 K, 101 kPa, x1 = 0.63	1.345 mPa·s
311.23 K, 101 kPa, x1 = 0.745	1.534 mPa·s
311.28 K, 101 kPa, x1 = 0.592	1.258 mPa·s
311.35 K, 101 kPa, x1 = 0.39	0.995 mPa·s
311.37 K, 101 kPa, x1 = 0.442	1.063 mPa·s
311.64 K, 101 kPa, x1 = 0.492	1.12 mPa·s
311.89 K, 101 kPa, x1 = 0.523	1.16 mPa·s
311.98 K, 101 kPa, x1 = 0.71	1.439 mPa·s
311.98 K, 101 kPa, x1 = 0.745	1.501 mPa·s
312.01 K, 101 kPa, x1 = 0.462	1.067 mPa·s
312.07 K, 101 kPa, x1 = 0.41	1.004 mPa·s
312.11 K, 101 kPa, x1 = 0.337	0.919 mPa·s
312.18 K, 101 kPa, x1 = 0.63	1.289 mPa·s
312.19 K, 101 kPa, x1 = 0.543	1.174 mPa·s
312.2 K, 101 kPa, x1 = 0.442	1.042 mPa·s

NCCN + CC(O)CO
viscosity [mPa·s], 101 kPa
Settings	293.15 K	298.15 K	303.15 K	308.15 K	313.15 K	318.15 K
x2 = 0.0399	1.85	1.64	1.48	1.33	1.2	1.08
x2 = 0.0807	2.29	2	1.82	1.62	1.43	1.29
x2 = 0.1223	2.72	2.49	2.23	1.95	1.81	1.54
x2 = 0.1649	3.73	3.14	2.84	2.47	2.21	1.89
x2 = 0.2084	4.73	4.04	3.54	3.02	2.63	2.28
x2 = 0.2529	6.26	5.27	4.5	3.9	3.33	–
x2 = 0.2984	8.74	7.05	6	5.01	4.23	–
x2 = 0.3449	11.9	9.4	7.92	6.61	5.49	–
x2 = 0.3926	16.9	12.4	10.5	8.39	6.94	–
x2 = 0.4413	22.8	16.9	13.6	10.7	8.8	–
x2 = 0.4912	30.5	22.5	17.7	13.7	11	–
x2 = 0.5423	39.6	28.8	22.7	17.2	13.6	–
x2 = 0.5946	48.1	34.7	27.4	20.6	16.1	–
x2 = 0.6483	55.8	41.5	31.7	23.6	18.5	–
x2 = 0.7032	62.6	46.3	35.2	25.9	20.3	–
x2 = 0.7596	66.6	49.7	37.8	27.6	21.6	–
x2 = 0.8174	66.8	49.9	38.4	28.4	22.2	–
x2 = 0.8767	64.5	48.8	37.4	27.4	22.1	–
x2 = 0.9375	60.7	46.2	35.5	26.2	21.1	–
